Experimental data: article PMC4537502 (Psychopharmacology, 2015)

Tests used:
D2R = details: read-out: Kd in rat brain tissue; ref Köhler et al. [1985]; cited from earlier work
[1] = target: dopamine D2 receptor (D2R) (Rattus norvegicus, UniProt P61169); assay: in vivo; details: rat, baseline, mean ± S.D.
Description: Because of limited availability of the test drug, the 60 mg/kg dose group was scanned only with ^11C-raclopride.
After drug administration and about 20 min before each microPET scan, animals were anesthetized with isoflurane (Pharmachemie BV, Haarlem, Netherlands). […] Both tracers were injected as a slow bolus (1 ml of saline-diluted tracer solution infused during a period of 1 min), using a Harvard-style injection pump.
Two rats were scanned in each scan session. They were positioned on heating mats in a microPET Focus 220 system, in transaxial position above each other with their brains in the field of view. Body temperature of the animals was kept close to normal with electronic temperature controllers. Heart rate and oxygen level of the blood during the scan were monitored using pulse oximeters (PulseSense, Nonin). […] A list mode protocol was used with a 76-min acquisition time.
Image reconstruction was performed using microPET Manager 2.3.3.6 (Siemens). The PET data were split according to position along the y-axis, so that a separate data set was acquired for each animal. The list mode data of the emission scans were reframed in a dynamic sequence of 6 × 10, 4 × 30, 2 × 60, 1 × 120, 1 × 180, 4 × 300, and 3 × 600 s (with an additional 960-s frame for the rat that was injected first). The data were reconstructed per time frame employing an iterative reconstruction algorithm (OSEM2D with Fourier rebinning, 4 iterations, and 16 subsets). […] Data sets were corrected for decay, random coincidences, scatter, and attenuation.
In ^11C-raclopride scans of the brain, three-dimensional regions of interest (ROIs) were manually drawn over the left and right striatum and cerebellum, using the program ASIPro 6.3.3.0 (Siemens). […] Time-activity curves (TACs) were generated for these regions (Fig. 1). The results are expressed as dimensionless standardized uptake values (PET-SUV), defined as [(tissue activity concentration (MBq/g) × body weight (g) / injected dose (MBq)]. Brain tissue was assumed to have a specific gravity of 1 g/ml.
Plateau values for the striatum-to-cerebellum ratio were derived from this curve fit.

dopamine D2 receptor (D2R), sequence (P61169 whole entry): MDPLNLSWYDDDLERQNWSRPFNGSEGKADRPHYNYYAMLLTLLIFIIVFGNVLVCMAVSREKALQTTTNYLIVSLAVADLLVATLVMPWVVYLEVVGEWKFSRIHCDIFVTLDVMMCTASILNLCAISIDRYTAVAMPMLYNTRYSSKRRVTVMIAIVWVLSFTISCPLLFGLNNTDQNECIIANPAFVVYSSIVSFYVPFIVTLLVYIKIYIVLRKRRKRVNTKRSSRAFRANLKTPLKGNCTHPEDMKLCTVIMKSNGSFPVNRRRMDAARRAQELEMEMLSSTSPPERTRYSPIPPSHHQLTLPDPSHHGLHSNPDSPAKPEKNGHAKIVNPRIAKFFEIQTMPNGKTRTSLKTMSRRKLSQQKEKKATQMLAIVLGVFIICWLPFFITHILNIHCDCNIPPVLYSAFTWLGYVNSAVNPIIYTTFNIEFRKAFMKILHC

| SMILES | Kd (D2R) | Target binding of the radioligand (striatum-to-cerebellum ratio at plateau minus one) [1] |
| --- | --- | --- |
| CCN1CCC[C@H]1CNC(=O)c1c(O)c(Cl)cc(Cl)c1OC (racemic) [^11C-raclopride] | 1.2 nM |  |
| CCN1CCC[C@H]1CNC(=O)c1c(O)c(Cl)cc(Cl)c1O[11CH3] (racemic) [^11C-raclopride] |  | 2.85 ± 0.48 |
